Data from ChEMBL document CHEMBL4616726, “Optimization of the Linker Domain in a Dimeric Compound that Degrades an r(CUG) Repeat Expansion in Cells” (J Med Chem, 2020).
Each block holds one molecule with its values, some of them ahead of it. Active and inactive are the calls of the source. The calls are words filed in the database; no cut-off is given here.

Tests used:
[1] = system: r(CUG) repeat expansion; assay: Induction of DMPK mRNA 3'-UTR r(CUG)1300 repeat degradation in human DM1 patient-derived myotubes at 5 uM by RT-qPCR analysis relative to control; assay type: nucleic-acid assay
[2] = system: r(CUG) repeat expansion; assay: Induction of 5'-biotinylated r(CUG)12 RNA repeat (unknown origin) degradation assessed as disruption of r(CUG)12-MBNL1 complex formation incubated for 15 mins by TR-FRET assay; assay type: nucleic-acid assay
[3] = species on record: Homo sapiens; assay: Effect on alternative splicing of MAP4K4 exon 22a in human DM1-patient derived myotubes at 5 uM by RT-qPCR analysis relative to control; assay type: functional
[4] = system: r(CUG) repeat expansion; assay: Induction of SORCS2 r(CUG)7 RNA repeat degradation in human DM1 patient myotubes at 1 uM by RT-qPCR analysis relative to control; assay type: nucleic-acid assay
[5] = system: r(CUG) repeat expansion; assay: Induction of LRP8 r(CUG)11 RNA repeat degradation in human DM1 patient myotubes at 1 uM by RT-qPCR analysis relative to control; assay type: nucleic-acid assay
[6] = system: r(CUG) repeat expansion; assay: Induction of MAP3K4 r(CUG)11 RNA repeat degradation in human DM1 patient myotubes at 1 uM by RT-qPCR analysis relative to control; assay type: nucleic-acid assay
[7] = system: r(CUG) repeat expansion; assay: Induction of r(CUG)exp RNA repeat in human DM1-patient derived myotubes assessed as improvement in MBNL1 exon 5 splicing defect at 1 uM by RT-qPCR analysis relative to control; assay type: nucleic-acid assay
[8] = system: r(CUG) repeat expansion; assay: Induction of wild-type DMPK r(CUG)20 RNA repeat degradation in human DM1 patient myotubes at 1 uM by RT-qPCR analysis relative to control; assay type: nucleic-acid assay
[9] = system: r(CUG) repeat expansion; assay: Induction of DMPK mRNA 3'-UTR r(CUG)1300 repeat degradation in human DM1 patient-derived myotubes at 1 uM by RT-qPCR analysis relative to control; assay type: nucleic-acid assay
[10] = system: r(CUG) repeat expansion; assay: Induction of wild-type DMPK r(CUG)20 RNA repeat degradation in healthy human myotubes at 5 uM by RT-qPCR analysis relative to control; assay type: nucleic-acid assay
[11] = species on record: Homo sapiens; assay: Induction of DNA damage in human DM1-patient derived myotubes at 1 uM assessed as induction of DNA double strand breaks by measuring gamma-H2AX foci formation by immunofluorescence assay relative to control; assay type: functional
[12] = system: r(CUG) repeat expansion; assay: Induction of r(CUG)10 RNA repeat (unknown origin) degradation at 2.5 uM relative to control; assay type: nucleic-acid assay
[13] = system: r(CUG) repeat expansion; assay: Induction of SCUBE2 r(CUG)7 RNA repeat degradation in human DM1 patient myotubes at 1 uM by RT-qPCR analysis relative to control; assay type: nucleic-acid assay
[14] = biological target: r(CUG) repeat expansion; assay: Binding affinity to r(CUG)8 RNA repeat (unknown origin) by fluorescence based assay; assay type: nucleic-acid assay
[15] = biological target: r(CUG) repeat expansion; assay: Binding affinity to r(CUG)12 RNA repeat (unknown origin) by fluorescence based assay; assay type: nucleic-acid assay
[16] = species on record: Homo sapiens; assay: Effect on MBNL1 exon 5 splicing patterns in wild type human myotubes at 5 uM by RT-qPCR analysis relative to control; assay type: functional
[17] = system: r(CUG) repeat expansion; assay: Induction of CASK r(CUG)16 RNA repeat degradation in human DM1 patient myotubes at 1 uM by RT-qPCR analysis relative to control; assay type: nucleic-acid assay
[18] = system: r(CUG) repeat expansion; assay: Induction of r(CUG)exp RNA repeat in human DM1-patient derived myotubes assessed as reduction in number of foci containing r(CUG)exp-MBNL1 foci at 1 uM by RNA fluorescence in situ hybridization assay; assay type: nucleic-acid assay
[19] = system: r(CUG) repeat expansion; assay: Induction of r(CUG)10 RNA repeat (unknown origin) degradation at 0.3 to 2.5 uM; assay type: nucleic-acid assay
[20] = system: r(CUG) repeat expansion; assay: Induction of r(CUG)exp RNA repeat in human DM1-patient derived myotubes assessed as improvement in MBNL1 exon 5 splicing defect at 5 uM by RT-qPCR analysis relative to control; assay type: nucleic-acid assay
[21] = Drug uptake in human DM1-patient derived myotubes by fluorescence based assay; assay type: ADME; conditions: in vitro
[22] = system: r(CUG) repeat expansion; assay: Induction of r(CUG)exp RNA repeat in human DM1-patient derived myotubes assessed as improvement in MBNL1 exon 5 splicing defect at 0.2 to 5 uM by RT-qPCR analysis relative to control; assay type: nucleic-acid assay
[23] = system: r(CUG) repeat expansion; assay: Induction of DMPK mRNA 3'-UTR r(CUG)1300 repeat degradation in human DM1 patient-derived myotubes at 0.2 to 5 uM by RT-qPCR analysis relative to control; assay type: nucleic-acid assay
[24] = Drug localization in nucleus of human DM1-patient derived myotubes by live-cell fluorescence microscopy; assay type: ADME, subcellular
[25] = Drug localization in cytoplasm of human DM1-patient derived myotubes by live-cell fluorescence microscopy; assay type: ADME, subcellular
[26] = system: r(CUG) repeat expansion; assay: Induction of r(CUG)exp RNA repeat in human DM1-patient derived myotubes assessed as reduction in number of foci containing r(CUG)exp-MBNL1 foci at 5 uM by RNA fluorescence in situ hybridization assay; assay type: nucleic-acid assay
[27] = system: r(CUG) repeat expansion; assay: Induction of r(CUG)exp RNA repeat in human DM1-patient derived myotubes assessed as reduction in number of foci containing r(CUG)exp-MBNL1 foci at 5 uM by immunofluorescence assay; assay type: nucleic-acid assay

- Activity [1]: 30%
Compound: CC(=O)O[C@H]1[C@H](O)[C@H](O[C@@H]2[C@H](O[C@H](c3cnc[nH]3)[C@@H](NC(=O)c3nc([C@@H](CC(N)=O)NC[C@@H](N)C(N)=O)nc(N)c3C)C(=O)N[C@@H](C)[C@H](O)[C@@H](C)C(=O)N[C@H](C(=O)NCCc3nc(-c4nc(C(=O)NCCCNCCCCNC(=O)CCCCCCC(=O)N(CCN(C)C(=O)CCCOc5cccc(-c6nc7ccc(-c8nc9ccc(N%10CCN(C)CC%10)cc9[nH]8)cc7[nH]6)c5)CC(=O)N(C)[C@@H](C)C(=O)N(C)[C@@H](C)C(=O)N(C)[C@@H](C)C(=O)N(CCCCN(C)C(=O)CCCOc5cccc(-c6nc7ccc(-c8nc9ccc(N%10CCN(C)CC%10)cc9[nH]8)cc7[nH]6)c5)CC(N)=O)cs4)cs3)[C@H](C)O)O[C@@H](CO)[C@H](O)[C@H]2O)O[C@@H](CO)[C@@H]1O

- Activity [2]: Active
Compound: CN1CCN(c2ccc3[nH]c(-c4ccc5[nH]c(-c6cccc(OCCCC(=O)N(C)CCCCN(CC(N)=O)C(=O)[C@H](Cc7ccc(O)cc7)N(C)C(=O)[C@H](Cc7ccc(O)cc7)N(C)C(=O)[C@H](Cc7ccc(O)cc7)N(C)C(=O)[C@H](Cc7ccc(O)cc7)N(C)C(=O)CCCOc7cccc(-c8nc9ccc(-c%10nc%11ccc(N%12CCN(C)CC%12)cc%11[nH]%10)cc9[nH]8)c7)c6)nc5c4)nc3c2)CC1

- Activity [4]: inactive
- Activity [5]: inactive
- Activity [6]: inactive
- Activity [7]: 30%
- Activity [8]: inactive
- Activity [9]: Active
- Activity [10]: inactive
- Activity [12]: 20%
- Activity [1]: 45%
- Activity [13]: inactive
- EC50 [14]: > 10 µM
- EC50 [15]: 280 nM
- Activity [17]: inactive
- Activity [18]: Active
- Activity [19]: Dose-dependent effect
- Activity [20]: 50%
- Drug uptake [21]: Active
Compound: Cc1c(N)nc([C@@H](CC(N)=O)NC[C@@H](N)C(N)=O)nc1C(=O)N[C@@H](C(=O)N[C@@H](C)[C@H](O)[C@@H](C)C(=O)N[C@H](C(=O)NCCc1nc(-c2nc(C(=O)NCCCNCCCCNC(=O)CN(CCCCN(C)C(=O)CCCOc3cccc(-c4nc5cc(-c6nc7cc(N8CCN(C)CC8)ccc7[nH]6)ccc5[nH]4)c3)C(=O)[C@H]3CCCN3C(=O)[C@H]3CCCN3C(=O)CCCOc3cccc(-c4nc5ccc(-c6nc7ccc(N8CCN(C)CC8)cc7[nH]6)cc5[nH]4)c3)cs2)cs1)[C@H](C)O)[C@H](O[C@@H]1O[C@@H](CO)[C@@H](O)[C@@H](O)[C@@H]1O[C@H]1O[C@H](CO)[C@@H](O)[C@H](OC(N)=O)[C@H]1O)c1cnc[nH]1
- Activity [3]: inactive
- Activity [11]: inactive
- Activity [16]: inactive

- Activity [22]: inactive
- Activity [12]: inactive
- Activity [23]: inactive
Compound: CC(=O)N(C)CCCCN(CC(=O)NCCCCNCCCNC(=O)c1csc(-c2csc(CCNC(=O)[C@@H](NC(=O)[C@H](C)[C@@H](O)[C@H](C)NC(=O)[C@H](NC(=O)c3nc([C@@H](CC(N)=O)NC[C@@H](N)C(N)=O)nc(N)c3C)[C@H](O[C@@H]3O[C@@H](CO)[C@@H](O)[C@@H](O)[C@@H]3O[C@H]3O[C@H](CO)[C@@H](O)[C@H](OC(N)=O)[C@H]3O)c3cnc[nH]3)[C@H](C)O)n2)n1)C(=O)[C@H]1CCCN1C(=O)[C@H]1CCCN1C(C)=O

- Activity [2]: Active
- Drug uptake [24]: Active
- Drug uptake [25]: Active
- Activity [20]: inactive
Compound: C[C@@H](NC(=O)CCCOc1cccc(-c2nc3ccc(-c4nc5ccc(N6CCN(C)CC6)cc5[nH]4)cc3[nH]2)c1)C(=O)N[C@H](C)C(=O)N[C@H](C)C(=O)N[C@H](C)C(=O)N(CCCCN(C)C(=O)CCCOc1cccc(-c2nc3cc(-c4nc5cc(N6CCN(C)CC6)ccc5[nH]4)ccc3[nH]2)c1)CC(N)=O

- Activity [2]: Active
- Drug uptake [24]: Active
- EC50 [14]: > 10 µM
- Activity [26]: Active
- EC50 [15]: 280 nM
- Activity [27]: Active
- Activity [20]: 30%
- Drug uptake [21]: Active
Compound: C[C@@H](C(=O)N(C)[C@@H](C)C(=O)N(C)[C@@H](C)C(=O)N(C)[C@@H](C)C(=O)N(CCCCN(C)C(=O)CCCOc1cccc(-c2nc3cc(-c4nc5cc(N6CCN(C)CC6)ccc5[nH]4)ccc3[nH]2)c1)CC(N)=O)N(C)C(=O)CCCOc1cccc(-c2nc3ccc(-c4nc5ccc(N6CCN(C)CC6)cc5[nH]4)cc3[nH]2)c1

- Activity [2]: Active
Compound: CN1CCN(c2ccc3[nH]c(-c4ccc5[nH]c(-c6cccc(OCCCC(=O)N(C)CCCCN(CC(N)=O)C(=O)[C@@H]7CCCN7C(=O)[C@@H]7CCCN7C(=O)[C@@H]7CCCN7C(=O)[C@@H]7CCCN7C(=O)[C@@H]7CCCN7C(=O)CCCOc7cccc(-c8nc9cc(-c%10nc%11cc(N%12CCN(C)CC%12)ccc%11[nH]%10)ccc9[nH]8)c7)c6)nc5c4)nc3c2)CC1
